Data: ChEMBL document CHEMBL1201862, “PubChem BioAssay data set” (2004)
Calls of active or inactive are those of the source.

Key:
[1] = target: Nuclear receptor subfamily 5 group A member 2 (Homo sapiens, UniProt O00482); assay type: functional, cell-based;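 note: HEK293T cells transfected with LRH-1 and a StAR promoter luciferase reporter; potency for inhibitors that lower LRH-1 driven reporter light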
Steroidogenic factor 1 = Steroidogenic factor 1 (Homo sapiens, UniProt Q13285); assay: Counterscreen for inverse agonists of the liver receptor homolog-1 (LRH-1; NR5A2): Luminescence-based cell-based high throughput dose response assay to identify inverse agonists of the Steroidogenic Factor 1 Nuclear Receptor (SF1; NR5A1).; assay type: functional
Chain of Steroidogenic factor 1 (Q13285 whole entry): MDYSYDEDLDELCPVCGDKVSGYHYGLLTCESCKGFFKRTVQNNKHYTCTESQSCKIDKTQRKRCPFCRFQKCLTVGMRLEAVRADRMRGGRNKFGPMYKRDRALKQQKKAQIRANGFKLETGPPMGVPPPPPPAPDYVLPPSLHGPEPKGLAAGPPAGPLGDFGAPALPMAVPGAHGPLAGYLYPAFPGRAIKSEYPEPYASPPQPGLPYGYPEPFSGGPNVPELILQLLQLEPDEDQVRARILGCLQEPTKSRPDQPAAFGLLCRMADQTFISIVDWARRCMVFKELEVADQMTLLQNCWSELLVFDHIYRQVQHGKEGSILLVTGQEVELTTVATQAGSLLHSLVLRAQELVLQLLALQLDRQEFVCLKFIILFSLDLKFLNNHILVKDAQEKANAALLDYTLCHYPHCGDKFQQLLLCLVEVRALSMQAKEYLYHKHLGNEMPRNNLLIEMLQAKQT

[2] = nonselective StAR promoter luciferase inhibitors – cell-based, luminescence, luciferase reporter, counter-screen for LRH-1 inverse agonist project, dose response (AID 651969); assay type: functional
[3] = target: Metabotropic glutamate receptor 5 (Rattus norvegicus, UniProt P31424); assay: Identification of a glycine sulfonamide based non-MPEP site positive allosteric potentiator (PAM) of mGlu5 (calcium_assay).; assay type: functional
Chain of Metabotropic glutamate receptor 5 (P31424 whole entry): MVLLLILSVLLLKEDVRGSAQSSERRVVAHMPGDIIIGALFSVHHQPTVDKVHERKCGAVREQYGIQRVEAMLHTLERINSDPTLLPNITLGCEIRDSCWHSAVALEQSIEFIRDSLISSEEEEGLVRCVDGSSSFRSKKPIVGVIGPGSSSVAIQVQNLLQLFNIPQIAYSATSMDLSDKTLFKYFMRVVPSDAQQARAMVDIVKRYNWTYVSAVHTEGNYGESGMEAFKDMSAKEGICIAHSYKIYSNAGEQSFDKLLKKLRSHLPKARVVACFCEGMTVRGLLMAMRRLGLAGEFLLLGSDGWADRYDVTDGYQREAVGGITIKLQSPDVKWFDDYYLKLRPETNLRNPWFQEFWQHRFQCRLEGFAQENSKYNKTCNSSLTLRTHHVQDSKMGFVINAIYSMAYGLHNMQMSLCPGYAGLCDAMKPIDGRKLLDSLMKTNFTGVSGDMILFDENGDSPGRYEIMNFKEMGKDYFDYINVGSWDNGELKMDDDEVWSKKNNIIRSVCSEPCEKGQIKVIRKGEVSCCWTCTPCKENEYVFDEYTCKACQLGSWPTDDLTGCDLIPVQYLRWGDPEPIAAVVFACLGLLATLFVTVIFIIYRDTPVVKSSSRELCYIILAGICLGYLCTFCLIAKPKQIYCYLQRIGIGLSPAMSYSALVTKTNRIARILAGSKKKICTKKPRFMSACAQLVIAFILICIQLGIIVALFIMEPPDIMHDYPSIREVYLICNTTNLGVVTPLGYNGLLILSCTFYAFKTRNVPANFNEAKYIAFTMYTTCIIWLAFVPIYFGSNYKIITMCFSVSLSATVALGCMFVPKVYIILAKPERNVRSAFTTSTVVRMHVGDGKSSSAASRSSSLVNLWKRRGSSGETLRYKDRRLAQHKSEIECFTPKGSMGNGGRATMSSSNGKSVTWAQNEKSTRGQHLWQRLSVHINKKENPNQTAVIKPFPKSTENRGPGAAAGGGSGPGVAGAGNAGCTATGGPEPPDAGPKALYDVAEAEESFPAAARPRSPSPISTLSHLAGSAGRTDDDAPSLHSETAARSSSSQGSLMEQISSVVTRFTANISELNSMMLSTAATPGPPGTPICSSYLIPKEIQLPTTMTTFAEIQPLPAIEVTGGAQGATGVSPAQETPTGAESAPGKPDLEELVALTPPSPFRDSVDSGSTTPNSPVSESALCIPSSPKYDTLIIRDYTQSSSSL

Large T antigen = Large T antigen (Simian virus 40, UniProt P03070); assay type: functional, Betapolyomavirus macacae;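 note: Confirmatory-stage PubChem screen for compounds that inhibit SV40 T antigen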
Chain of Large T antigen (P03070 whole entry): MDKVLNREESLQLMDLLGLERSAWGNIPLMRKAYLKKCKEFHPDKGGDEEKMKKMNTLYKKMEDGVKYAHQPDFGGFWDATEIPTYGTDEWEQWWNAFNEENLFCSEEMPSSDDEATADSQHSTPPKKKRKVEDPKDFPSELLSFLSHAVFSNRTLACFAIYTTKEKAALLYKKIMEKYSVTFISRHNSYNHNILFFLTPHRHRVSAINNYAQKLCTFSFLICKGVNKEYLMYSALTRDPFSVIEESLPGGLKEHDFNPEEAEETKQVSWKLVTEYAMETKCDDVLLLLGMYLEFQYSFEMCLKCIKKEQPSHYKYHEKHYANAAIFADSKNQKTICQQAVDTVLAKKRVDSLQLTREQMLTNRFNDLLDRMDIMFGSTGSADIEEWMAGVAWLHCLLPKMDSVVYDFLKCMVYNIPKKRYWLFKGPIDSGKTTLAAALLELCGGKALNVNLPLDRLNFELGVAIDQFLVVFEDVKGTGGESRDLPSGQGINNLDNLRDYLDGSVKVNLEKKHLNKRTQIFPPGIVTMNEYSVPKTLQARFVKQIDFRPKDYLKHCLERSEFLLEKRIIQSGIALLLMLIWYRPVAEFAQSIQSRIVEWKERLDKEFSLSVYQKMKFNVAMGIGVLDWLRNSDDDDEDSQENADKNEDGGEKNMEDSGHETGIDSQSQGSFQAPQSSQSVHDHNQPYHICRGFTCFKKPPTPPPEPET

[4] = target: T1, Microphthalmia-associated transcription factor (Homo sapiens, UniProt O75030); assay: reducers of TRPM1 reporter luminescence, concentration series – cell-based, SK-MEL-5, cherry-picked, set 3, MITF inhibitor project, dose response (AID 493073); assay type: functional;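 note: SK-MEL-5 melanoma cells with luciferase driven by the MITF target TRPM1 promoter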
T1 sequence (O75030 whole entry): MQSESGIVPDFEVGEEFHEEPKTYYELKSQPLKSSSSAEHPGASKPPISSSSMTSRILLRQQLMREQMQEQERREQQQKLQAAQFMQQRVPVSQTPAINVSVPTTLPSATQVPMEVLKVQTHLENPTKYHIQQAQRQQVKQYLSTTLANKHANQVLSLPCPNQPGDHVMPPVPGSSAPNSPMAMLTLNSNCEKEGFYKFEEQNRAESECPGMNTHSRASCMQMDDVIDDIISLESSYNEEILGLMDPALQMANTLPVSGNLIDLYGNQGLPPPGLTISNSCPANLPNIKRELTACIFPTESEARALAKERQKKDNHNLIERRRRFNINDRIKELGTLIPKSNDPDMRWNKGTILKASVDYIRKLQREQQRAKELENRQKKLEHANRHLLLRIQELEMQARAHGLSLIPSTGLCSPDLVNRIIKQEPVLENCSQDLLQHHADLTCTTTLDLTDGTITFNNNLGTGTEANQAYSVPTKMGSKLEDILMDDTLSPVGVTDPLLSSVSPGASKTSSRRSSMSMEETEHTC

[5] = Fluorescence-based cell-based high throughput dose response assay for inhibitors of the interaction of nucleotide-binding oligomerization domain containing 2 (NOD2) and the receptor-interacting serine-threonine kinase 2 (RIPK2).; assay type: functional; conditions: Homo sapiens
[6] = activation of miR-122 Renilla sensor silencing – cell-based, Huh7 psiCHECK-miR122, Renilla luciferase, cherry-picked, dose response (AID 651956); assay type: functional;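 note: huh7 hepatoma cells stably carrying a psiCHECK-2 miR-122 sensor plasmid; renilla luciferase signal reporting endogenous miR-122 activity after 48 h compound exposure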
[7] = general mammalian cell viability loss – inhibitor set, cherry-pick, set 2, cytotoxicity control for miR-122 modulator project, dose response (AID 720697); assay type: functional, cell-based
[8] = target: T2, Corticotropin-releasing factor receptor 2/Corticotropin-releasing factor-binding protein (Homo sapiens, UniProt P24387+Q13324); assay: Dose Response confirmation of uHTS hits for small molecule antagonists of the CRF-binding protein and CRF-R2 receptor complex.; assay type: functional; conditions: read-out: IC50_Mean
T2 sequence (Q13324 whole entry): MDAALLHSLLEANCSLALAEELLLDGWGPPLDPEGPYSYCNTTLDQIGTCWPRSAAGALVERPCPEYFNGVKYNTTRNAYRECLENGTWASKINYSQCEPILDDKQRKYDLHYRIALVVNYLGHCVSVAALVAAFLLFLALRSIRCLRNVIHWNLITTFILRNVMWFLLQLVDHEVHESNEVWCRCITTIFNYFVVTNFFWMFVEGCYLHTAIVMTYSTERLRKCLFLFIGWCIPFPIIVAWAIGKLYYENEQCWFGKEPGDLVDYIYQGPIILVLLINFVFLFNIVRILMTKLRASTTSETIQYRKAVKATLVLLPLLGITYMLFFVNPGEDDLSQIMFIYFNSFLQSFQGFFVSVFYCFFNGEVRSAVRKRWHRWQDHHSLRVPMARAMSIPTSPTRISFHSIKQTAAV
T2 sequence (P24387 whole entry): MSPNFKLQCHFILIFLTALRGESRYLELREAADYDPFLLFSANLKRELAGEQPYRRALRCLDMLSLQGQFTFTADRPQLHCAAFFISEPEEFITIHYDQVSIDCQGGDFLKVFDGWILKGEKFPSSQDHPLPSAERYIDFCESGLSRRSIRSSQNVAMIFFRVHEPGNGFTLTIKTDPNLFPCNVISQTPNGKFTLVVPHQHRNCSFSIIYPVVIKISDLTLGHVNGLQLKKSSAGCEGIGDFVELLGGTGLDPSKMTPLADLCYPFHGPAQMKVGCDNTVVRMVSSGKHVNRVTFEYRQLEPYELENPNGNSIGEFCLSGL

[9] = target: T2, Corticotropin-releasing factor receptor 2/Corticotropin-releasing factor-binding protein; assay: activators of CRF receptor 2 with binding protein – uHTS hits, confirmation (AID 602473); assay type: functional; conditions: read-out: EC50_Mean
[10] = blockers of CRF-binding protein–CRF-R2 complex – cell-based, uHTS hits, 384-well, dose response (AID 651639); assay type: functional, Homo sapiens; conditions: read-out: IC50_Mean
[11] = target: Disintegrin and metalloproteinase domain-containing protein 17 (Homo sapiens, UniProt P78536); assay: exosite inhibitors of ADAM17, dose response, biochemical (AID 743260)
Chain of Disintegrin and metalloproteinase domain-containing protein 17 (P78536 whole entry, the tested form may be a part): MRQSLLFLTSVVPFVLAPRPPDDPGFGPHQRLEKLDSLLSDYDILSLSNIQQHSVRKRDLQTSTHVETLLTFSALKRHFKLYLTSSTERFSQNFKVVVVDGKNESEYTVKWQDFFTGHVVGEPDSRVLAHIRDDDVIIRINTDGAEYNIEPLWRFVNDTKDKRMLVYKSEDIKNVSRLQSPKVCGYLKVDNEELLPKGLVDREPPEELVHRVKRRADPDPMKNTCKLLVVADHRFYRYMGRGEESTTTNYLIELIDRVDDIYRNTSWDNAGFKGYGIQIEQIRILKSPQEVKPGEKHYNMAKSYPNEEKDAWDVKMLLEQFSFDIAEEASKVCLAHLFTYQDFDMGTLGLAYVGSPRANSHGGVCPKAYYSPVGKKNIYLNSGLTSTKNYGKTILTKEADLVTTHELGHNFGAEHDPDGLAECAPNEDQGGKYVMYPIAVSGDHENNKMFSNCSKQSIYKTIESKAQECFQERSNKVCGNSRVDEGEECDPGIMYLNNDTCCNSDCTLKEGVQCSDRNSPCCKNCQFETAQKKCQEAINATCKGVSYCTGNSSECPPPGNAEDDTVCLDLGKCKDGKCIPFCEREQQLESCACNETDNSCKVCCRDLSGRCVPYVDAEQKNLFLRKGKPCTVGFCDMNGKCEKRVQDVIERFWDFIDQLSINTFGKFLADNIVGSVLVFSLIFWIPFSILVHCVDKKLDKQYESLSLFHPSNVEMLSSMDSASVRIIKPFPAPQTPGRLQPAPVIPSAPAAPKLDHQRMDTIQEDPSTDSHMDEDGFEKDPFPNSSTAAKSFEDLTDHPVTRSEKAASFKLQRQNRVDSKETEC

[12] = inhibition of ADAM10 peptide cleavage – biochemical, FRET peptide substrate, recombinant human ADAM10, selectivity assay for ADAM17 exosite inhibitor project, dose response (AID 743259);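 note: ADAM10 enzyme cleaving a FRET peptide substrate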
Galanin receptor type 3 = target: T3, Galanin receptor type 3 (Homo sapiens, UniProt O60755); assay: Fluorescence-based cell-based primary high throughput dose response assay to identify antagonists of the Galanin Receptor 3 (GalR3).; assay type: functional
T3 sequence (O60755 whole entry): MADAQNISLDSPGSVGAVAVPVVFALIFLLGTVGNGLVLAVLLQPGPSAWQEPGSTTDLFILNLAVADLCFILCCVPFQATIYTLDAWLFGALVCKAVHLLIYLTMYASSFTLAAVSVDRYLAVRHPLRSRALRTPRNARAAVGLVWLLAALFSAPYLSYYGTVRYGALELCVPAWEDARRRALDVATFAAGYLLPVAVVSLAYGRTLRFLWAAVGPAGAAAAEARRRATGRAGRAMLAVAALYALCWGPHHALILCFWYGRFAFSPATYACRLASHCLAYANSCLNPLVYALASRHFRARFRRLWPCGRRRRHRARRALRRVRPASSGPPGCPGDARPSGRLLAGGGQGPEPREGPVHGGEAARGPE

cells = assay type: functional, cell-based; conditions: HEK-CNG
Leucine aminopeptidase = target: T4, Leucine aminopeptidase (Plasmodium falciparum 3D7, UniProt Q8IL11); assay: P. falciparum M17LAP inhibitors, primary screen, biochemical, fluorogenic H-Leu-NHMec substrate, 1536-well (AID 1619); assay type: functional
T4 sequence (Q8IL11 whole entry): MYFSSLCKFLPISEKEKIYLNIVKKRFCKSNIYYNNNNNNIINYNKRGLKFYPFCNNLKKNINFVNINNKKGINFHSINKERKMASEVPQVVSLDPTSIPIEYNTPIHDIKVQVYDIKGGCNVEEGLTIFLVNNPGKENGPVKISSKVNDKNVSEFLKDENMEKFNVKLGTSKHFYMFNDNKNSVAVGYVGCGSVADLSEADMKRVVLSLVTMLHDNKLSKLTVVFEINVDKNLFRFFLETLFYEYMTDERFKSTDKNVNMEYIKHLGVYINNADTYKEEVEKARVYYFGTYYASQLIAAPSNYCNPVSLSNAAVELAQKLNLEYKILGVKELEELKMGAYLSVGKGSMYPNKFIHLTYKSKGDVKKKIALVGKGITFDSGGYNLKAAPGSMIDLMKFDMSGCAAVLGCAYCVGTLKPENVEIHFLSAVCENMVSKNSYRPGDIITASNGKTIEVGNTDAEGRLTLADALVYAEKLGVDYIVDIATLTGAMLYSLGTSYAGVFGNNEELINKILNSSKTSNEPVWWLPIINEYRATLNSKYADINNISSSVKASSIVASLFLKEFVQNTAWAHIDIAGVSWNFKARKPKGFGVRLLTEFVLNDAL

Chain of Nuclear receptor subfamily 5 group A member 2 (O00482 whole entry): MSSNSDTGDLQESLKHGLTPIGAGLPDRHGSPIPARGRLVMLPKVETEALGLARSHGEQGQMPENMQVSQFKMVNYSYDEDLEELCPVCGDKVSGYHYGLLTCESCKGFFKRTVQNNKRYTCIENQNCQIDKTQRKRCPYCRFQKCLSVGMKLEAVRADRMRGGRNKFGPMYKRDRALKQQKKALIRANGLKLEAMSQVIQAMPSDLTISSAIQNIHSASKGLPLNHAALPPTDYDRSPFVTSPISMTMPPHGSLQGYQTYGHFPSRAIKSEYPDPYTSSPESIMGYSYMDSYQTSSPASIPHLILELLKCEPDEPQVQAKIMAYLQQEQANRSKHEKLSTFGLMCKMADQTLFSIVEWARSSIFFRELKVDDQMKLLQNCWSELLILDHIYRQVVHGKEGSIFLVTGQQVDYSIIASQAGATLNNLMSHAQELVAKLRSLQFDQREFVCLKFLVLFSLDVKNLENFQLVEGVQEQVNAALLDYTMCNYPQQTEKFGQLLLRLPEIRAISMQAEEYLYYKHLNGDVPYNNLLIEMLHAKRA

CCc1cc(=O)oc2c(C)c(OCC(=O)NCCCN3CCCC3=O)ccc12
IC50 [1]: 35.9 µM (inactive) | IC50 (Steroidogenic factor 1): 35.9 µM (inactive) | IC50 [2]: 35.9 µM (inactive)

CS(=O)(=O)N1c2ccccc2CCC1C(=O)Nc1nccs1 (configuration not stated)
EC50 [3]: 4.43 µM

O=[N+]([O-])/C=C\c1ccc(N2CCOCC2)cc1
IC50 (Large T antigen): > 100 µM (active) | AC50 [4]: 13.6 µM (active) | IC50 [5]: 4.32 µM (active)

CN(C)c1ncnc2c1ncn2C1OC(CO)C(O)C1O (configuration not stated)
AC50 [6]: 25.4 µM (active) | AC50 [7]: 8.52 µM (active)

COc1cccc(NC(=O)c2cc(S(=O)(=O)N3CCc4ccccc43)cn2C)c1
IC50 [8]: < 368 nM (active) | EC50 [9]: > 53 µM (inactive) | IC50 [10]: > 20 µM (inactive)

O=C(O)CCC(=O)c1c[nH]c2ccccc12
IC50 [11]: 24.9 µM (inactive) | IC50 [12]: > 69.5 µM (inactive)

O=C(Nc1ccc(Oc2ccccc2)cc1)c1csc(COCCO)n1
IC50 (Galanin receptor type 3): 1.39 µM (active) | EC50 (cells): > 29.9 µM (inactive)

Cc1ccc(-c2nn3c(C)nnc3s2)cc1NC(=O)c1ccco1
IC50 [1]: 18.3 µM (inactive) | IC50 (Steroidogenic factor 1): 8.56 µM (active) | IC50 [2]: 35.9 µM (inactive)

CCc1c(C)nc(SCC(=O)Nc2ccc3c(c2)OCCO3)[nH]c1=O
IC50 (Leucine aminopeptidase): 10.2 µM (active) | IC50 [1]: 1.54 µM (active) | IC50 (Steroidogenic factor 1): 0.599 µM (active)
